From article PMC5053573, “Structure-Based Design of Tetrahydroisoquinoline-7-carboxamides as Selective Discoidin Domain Receptor 1 (DDR1) Inhibitors” (Journal of Medicinal Chemistry, 2016)

Legend:
Test in all cases: biochemical
Details in all cases: read-out: %Ctrl @ 1000nM
PDPK1 = PDPK1 (Homo sapiens, UniProt O15530)
EGFR(E746-A750del) = EGFR(E746-A750del) (Homo sapiens, UniProt P00533, DEL746-750)
PIK3C2G = PIK3C2G (Homo sapiens, UniProt O75747)
SGK = target: T1, SGK (Homo sapiens, UniProt O00141)
T1 construct: gene SGK1

FLT3-autoinhibited = FLT3-autoinhibited (Homo sapiens, UniProt P36888)
BMPR1A = BMPR1A (Homo sapiens, UniProt P36894)
EGFR(L861Q) = EGFR(L861Q) (Homo sapiens, UniProt P00533, L861Q)
CDKL5 = CDKL5 (Homo sapiens, UniProt O76039)
HPK1 = target: T2, HPK1 (Homo sapiens, UniProt Q92918)
T2 construct: gene MAP4K1

PIP5K1A = PIP5K1A (Homo sapiens, UniProt Q99755)
FLT3(D835Y) = FLT3(D835Y) (Homo sapiens, UniProt P36888, D835Y)
MYLK4 = MYLK4 (Homo sapiens, UniProt Q86YV6)
CAMK2A = CAMK2A (Homo sapiens, UniProt Q9UQM7)
PIKFYVE = PIKFYVE (Homo sapiens, UniProt Q9Y2I7)
DDR2 = DDR2 (Homo sapiens, UniProt Q16832)
KIT(D816V) = KIT(D816V) (Homo sapiens, UniProt P10721, D816V)
DCAMKL3 = target: T3, DCAMKL3 (Homo sapiens, UniProt Q9C098)
T3 construct: gene DCLK3

SIK = target: T4, SIK (Homo sapiens, UniProt P57059)
T4 construct: gene SIK1

FLT3(ITD,D835V) = FLT3(ITD,D835V) (Homo sapiens, UniProt P36888, D835V/ITD)
KIT(V559D,V654A) = KIT(V559D,V654A) (Homo sapiens, UniProt P10721, V559D/V654A)
CSF1R-autoinhibited = CSF1R-autoinhibited (Homo sapiens, UniProt P07333)
IKK-epsilon = target: T5, IKK-epsilon (Homo sapiens, UniProt Q14164)
T5 construct: gene IKBKE

NEK9 = NEK9 (Homo sapiens, UniProt Q8TD19)
[1] = target: RPS6KA4(Kin.Dom.2-C-terminal) (Homo sapiens, UniProt O75676)
GRK7 = GRK7 (Homo sapiens, UniProt Q8WTQ7)
ABL2 = ABL2 (Homo sapiens, UniProt P42684)
ERBB4 = ERBB4 (Homo sapiens, UniProt Q15303)
CSNK1G3 = CSNK1G3 (Homo sapiens, UniProt Q9Y6M4)
PKN1 = PKN1 (Homo sapiens, UniProt Q16512)
CDK4-cyclinD3 = CDK4-cyclinD3 (Homo sapiens, UniProt P11802)
JNK3 = target: T6, JNK3 (Homo sapiens, UniProt P53779)
T6 construct: gene MAPK10

DYRK1A = DYRK1A (Homo sapiens, UniProt Q13627)
MKK7 = target: T7, MKK7 (Homo sapiens, UniProt O14733)
T7 construct: gene MAP2K7

PCTK2 = target: T8, PCTK2 (Homo sapiens, UniProt Q00537)
T8 construct: gene CDK17

KIT(V559D,V654A), sequence (P10721 whole entry V559D/V654A): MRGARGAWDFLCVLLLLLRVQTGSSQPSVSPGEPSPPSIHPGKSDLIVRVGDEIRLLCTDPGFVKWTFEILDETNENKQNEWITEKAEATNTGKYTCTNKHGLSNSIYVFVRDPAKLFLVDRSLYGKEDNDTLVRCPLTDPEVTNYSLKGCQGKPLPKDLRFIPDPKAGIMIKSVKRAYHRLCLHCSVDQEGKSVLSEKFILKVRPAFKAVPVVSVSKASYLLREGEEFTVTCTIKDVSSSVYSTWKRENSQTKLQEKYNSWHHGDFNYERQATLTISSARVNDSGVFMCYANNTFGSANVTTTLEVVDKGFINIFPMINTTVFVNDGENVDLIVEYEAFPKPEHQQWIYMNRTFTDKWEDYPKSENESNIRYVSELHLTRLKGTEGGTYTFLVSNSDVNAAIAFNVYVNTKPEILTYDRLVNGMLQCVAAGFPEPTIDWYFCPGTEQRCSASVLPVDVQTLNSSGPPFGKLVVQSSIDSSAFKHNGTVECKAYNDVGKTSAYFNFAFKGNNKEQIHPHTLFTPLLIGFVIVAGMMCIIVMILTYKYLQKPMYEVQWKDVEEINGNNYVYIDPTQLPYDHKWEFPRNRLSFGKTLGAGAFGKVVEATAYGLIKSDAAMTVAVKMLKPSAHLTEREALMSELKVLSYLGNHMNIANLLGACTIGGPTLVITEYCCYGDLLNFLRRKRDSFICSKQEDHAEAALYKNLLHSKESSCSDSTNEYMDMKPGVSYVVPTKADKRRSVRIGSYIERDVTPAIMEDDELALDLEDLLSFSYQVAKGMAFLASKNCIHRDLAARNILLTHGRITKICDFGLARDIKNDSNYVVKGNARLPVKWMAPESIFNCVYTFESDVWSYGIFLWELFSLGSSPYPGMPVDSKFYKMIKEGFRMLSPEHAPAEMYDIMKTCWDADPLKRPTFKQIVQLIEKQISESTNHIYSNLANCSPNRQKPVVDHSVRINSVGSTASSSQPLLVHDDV
RPS6KA4(Kin.Dom.2-C-terminal), sequence (O75676 whole entry): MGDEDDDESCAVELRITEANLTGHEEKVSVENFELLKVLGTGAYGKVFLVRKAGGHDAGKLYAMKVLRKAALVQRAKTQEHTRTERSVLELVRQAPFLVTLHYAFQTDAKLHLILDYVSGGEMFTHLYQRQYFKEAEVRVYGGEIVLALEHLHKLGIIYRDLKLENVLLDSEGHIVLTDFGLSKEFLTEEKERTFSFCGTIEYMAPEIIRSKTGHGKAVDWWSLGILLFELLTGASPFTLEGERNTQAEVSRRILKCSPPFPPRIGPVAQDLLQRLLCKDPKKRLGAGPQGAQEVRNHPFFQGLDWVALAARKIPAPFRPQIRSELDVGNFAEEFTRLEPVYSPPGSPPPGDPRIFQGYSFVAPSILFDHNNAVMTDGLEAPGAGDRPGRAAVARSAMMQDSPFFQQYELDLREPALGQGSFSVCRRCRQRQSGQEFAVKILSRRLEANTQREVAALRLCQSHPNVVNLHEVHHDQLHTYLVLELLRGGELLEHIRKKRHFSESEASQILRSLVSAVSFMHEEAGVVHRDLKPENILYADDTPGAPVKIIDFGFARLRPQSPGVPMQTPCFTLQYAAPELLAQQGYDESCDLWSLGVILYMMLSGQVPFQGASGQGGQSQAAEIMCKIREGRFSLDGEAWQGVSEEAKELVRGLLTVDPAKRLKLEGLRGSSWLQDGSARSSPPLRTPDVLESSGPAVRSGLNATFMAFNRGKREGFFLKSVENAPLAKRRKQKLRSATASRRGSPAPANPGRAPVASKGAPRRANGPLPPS
NEK9, sequence (Q8TD19 whole entry): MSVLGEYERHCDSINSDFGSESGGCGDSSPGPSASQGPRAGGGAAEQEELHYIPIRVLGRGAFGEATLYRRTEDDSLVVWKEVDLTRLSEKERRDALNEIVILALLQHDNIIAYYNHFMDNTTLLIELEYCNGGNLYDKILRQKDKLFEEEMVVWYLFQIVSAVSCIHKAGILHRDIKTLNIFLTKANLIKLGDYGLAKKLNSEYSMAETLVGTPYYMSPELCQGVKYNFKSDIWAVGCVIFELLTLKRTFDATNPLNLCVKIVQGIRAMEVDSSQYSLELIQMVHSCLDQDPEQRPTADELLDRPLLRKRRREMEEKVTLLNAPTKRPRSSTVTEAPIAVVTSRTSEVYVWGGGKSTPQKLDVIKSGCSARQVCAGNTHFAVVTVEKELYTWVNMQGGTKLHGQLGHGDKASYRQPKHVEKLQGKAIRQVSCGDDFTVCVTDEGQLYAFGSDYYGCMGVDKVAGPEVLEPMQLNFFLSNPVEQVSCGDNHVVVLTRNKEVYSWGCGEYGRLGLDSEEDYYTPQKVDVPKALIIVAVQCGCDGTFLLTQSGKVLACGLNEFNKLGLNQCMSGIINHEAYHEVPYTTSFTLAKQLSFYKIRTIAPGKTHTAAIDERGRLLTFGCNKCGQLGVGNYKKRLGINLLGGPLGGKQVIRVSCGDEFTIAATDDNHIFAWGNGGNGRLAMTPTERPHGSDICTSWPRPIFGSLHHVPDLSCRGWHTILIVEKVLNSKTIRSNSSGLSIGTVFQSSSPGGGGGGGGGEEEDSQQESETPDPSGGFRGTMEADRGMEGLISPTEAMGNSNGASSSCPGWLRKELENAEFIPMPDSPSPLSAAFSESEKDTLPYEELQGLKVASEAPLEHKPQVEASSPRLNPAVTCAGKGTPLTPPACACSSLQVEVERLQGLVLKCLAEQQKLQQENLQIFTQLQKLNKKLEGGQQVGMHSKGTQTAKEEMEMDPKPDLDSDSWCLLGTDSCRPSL
T3 sequence (Q9C098 whole entry): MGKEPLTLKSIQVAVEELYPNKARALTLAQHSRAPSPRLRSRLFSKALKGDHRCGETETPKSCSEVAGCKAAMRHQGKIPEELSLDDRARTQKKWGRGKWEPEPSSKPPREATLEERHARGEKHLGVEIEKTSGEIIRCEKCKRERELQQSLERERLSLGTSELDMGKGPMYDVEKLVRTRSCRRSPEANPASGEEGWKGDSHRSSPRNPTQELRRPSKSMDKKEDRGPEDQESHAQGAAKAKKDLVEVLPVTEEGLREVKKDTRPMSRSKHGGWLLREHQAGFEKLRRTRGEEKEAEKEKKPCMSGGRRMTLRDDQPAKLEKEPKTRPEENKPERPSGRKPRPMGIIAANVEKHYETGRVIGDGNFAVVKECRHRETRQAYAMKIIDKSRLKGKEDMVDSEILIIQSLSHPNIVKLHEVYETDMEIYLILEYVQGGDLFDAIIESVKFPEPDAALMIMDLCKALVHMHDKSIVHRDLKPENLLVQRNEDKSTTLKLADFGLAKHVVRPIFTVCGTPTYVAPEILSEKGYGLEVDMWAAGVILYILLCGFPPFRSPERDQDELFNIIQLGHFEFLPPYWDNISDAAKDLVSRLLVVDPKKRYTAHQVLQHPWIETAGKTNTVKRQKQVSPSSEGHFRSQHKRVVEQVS
T4 sequence (P57059 whole entry): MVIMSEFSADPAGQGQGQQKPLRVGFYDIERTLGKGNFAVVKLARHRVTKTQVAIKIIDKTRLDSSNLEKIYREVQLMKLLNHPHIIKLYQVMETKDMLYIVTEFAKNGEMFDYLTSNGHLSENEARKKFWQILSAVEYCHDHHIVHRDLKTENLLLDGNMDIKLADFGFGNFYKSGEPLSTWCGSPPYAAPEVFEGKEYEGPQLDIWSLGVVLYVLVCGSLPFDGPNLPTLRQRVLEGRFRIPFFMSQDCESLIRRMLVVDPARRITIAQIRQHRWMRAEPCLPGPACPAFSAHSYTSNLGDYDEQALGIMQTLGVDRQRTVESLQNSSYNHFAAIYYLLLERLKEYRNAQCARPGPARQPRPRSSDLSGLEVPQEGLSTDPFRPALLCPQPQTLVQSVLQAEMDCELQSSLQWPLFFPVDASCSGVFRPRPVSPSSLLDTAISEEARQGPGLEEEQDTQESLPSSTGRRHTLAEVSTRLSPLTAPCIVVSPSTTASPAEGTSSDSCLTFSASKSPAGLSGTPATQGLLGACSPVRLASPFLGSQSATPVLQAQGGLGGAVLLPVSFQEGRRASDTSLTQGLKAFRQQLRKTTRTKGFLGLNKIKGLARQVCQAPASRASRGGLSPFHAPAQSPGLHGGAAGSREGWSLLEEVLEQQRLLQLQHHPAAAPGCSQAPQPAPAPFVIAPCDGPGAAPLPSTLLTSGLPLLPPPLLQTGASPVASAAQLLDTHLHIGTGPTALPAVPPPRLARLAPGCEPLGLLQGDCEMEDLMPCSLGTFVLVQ
KIT(D816V), sequence (P10721 whole entry D816V): as the sequence (P10721 whole entry V559D/V654A) above, with D559V, A654V, D816V counted along it
CSNK1G3, sequence (Q9Y6M4 whole entry): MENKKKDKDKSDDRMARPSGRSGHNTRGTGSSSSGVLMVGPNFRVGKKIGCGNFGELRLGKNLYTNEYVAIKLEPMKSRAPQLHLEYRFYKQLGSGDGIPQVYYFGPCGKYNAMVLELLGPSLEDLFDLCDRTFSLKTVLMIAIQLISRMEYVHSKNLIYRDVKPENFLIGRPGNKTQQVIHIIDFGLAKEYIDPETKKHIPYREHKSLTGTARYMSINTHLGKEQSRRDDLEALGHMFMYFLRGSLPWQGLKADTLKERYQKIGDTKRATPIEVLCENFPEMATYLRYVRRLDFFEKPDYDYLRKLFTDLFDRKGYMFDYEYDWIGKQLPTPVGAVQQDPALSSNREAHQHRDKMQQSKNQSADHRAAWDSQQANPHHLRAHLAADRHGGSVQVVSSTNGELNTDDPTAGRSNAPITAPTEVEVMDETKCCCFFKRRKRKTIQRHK
T7 sequence (O14733 whole entry): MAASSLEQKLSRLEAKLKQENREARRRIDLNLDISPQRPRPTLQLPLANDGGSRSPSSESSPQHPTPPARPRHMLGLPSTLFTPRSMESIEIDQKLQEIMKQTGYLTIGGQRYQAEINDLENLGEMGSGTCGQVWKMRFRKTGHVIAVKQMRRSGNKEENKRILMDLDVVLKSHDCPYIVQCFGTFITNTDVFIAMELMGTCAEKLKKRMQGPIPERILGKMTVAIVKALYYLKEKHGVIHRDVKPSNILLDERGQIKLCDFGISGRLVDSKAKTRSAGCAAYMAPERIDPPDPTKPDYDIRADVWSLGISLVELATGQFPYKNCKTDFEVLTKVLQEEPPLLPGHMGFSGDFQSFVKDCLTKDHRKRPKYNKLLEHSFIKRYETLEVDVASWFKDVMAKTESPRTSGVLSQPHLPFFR

remaining activity at 1 µM (PDPK1): 84%
remaining activity at 1 µM (EGFR(E746-A750del)): 94%
remaining activity at 1 µM (PIK3C2G): 86%
remaining activity at 1 µM (SGK): 100%
remaining activity at 1 µM (FLT3-autoinhibited): 100%
remaining activity at 1 µM (BMPR1A): 93%
remaining activity at 1 µM (EGFR(L861Q)): 97%
remaining activity at 1 µM (CDKL5): 100%
remaining activity at 1 µM (HPK1): 100%
remaining activity at 1 µM (PIP5K1A): 100%
remaining activity at 1 µM (FLT3(D835Y)): 40%
remaining activity at 1 µM (MYLK4): 100%
remaining activity at 1 µM (CAMK2A): 97%
remaining activity at 1 µM (PIKFYVE): 100%
remaining activity at 1 µM (DDR2): 0.35%
remaining activity at 1 µM (KIT(D816V)): 77%
remaining activity at 1 µM (DCAMKL3): 86%
remaining activity at 1 µM (SIK): 84%
remaining activity at 1 µM (FLT3(ITD,D835V)): 23%
remaining activity at 1 µM (KIT(V559D,V654A)): 86%
remaining activity at 1 µM (CSF1R-autoinhibited): 93%
remaining activity at 1 µM (IKK-epsilon): 86%
remaining activity at 1 µM [1]: 100%
remaining activity at 1 µM (GRK7): 94%
remaining activity at 1 µM (ABL2): 46%
remaining activity at 1 µM (ERBB4): 100%
remaining activity at 1 µM (CSNK1G3): 72%
remaining activity at 1 µM (PKN1): 100%
remaining activity at 1 µM (CDK4-cyclinD3): 100%
remaining activity at 1 µM (JNK3): 100%
remaining activity at 1 µM (DYRK1A): 100%
remaining activity at 1 µM (MKK7): 100%
remaining activity at 1 µM (PCTK2): 96%
SMILES: Cc1cn(-c2cc(NC(=O)c3ccc4c(c3)CN(c3cncnc3)C[C@@H]4C)cc(C(F)(F)F)c2)cn1 [Compound 6j]
remaining activity at 1 µM (NEK9): 85%
